Source: paper PMC10905675, “INX-315, a Selective CDK2 Inhibitor, Induces Cell Cycle Arrest and Senescence in Solid Tumors” (Cancer Discovery, 2023)

Legend:
[1] = system: five cell lines with CCNE1 amplification (ovarian cancer); test: CellTiter Glo viability assay; format: cell-based; conditions: six days
[2] = system: Hs68; test: CellTiter Glo viability assay; format: cell-based; conditions: benign human fibroblast cell line Hs68
Experimental: (§1) An exception to this is MCF7PDRCl5-1 cells which were first cultured for 5 days without palbociclib then plated as described. MCF7PDRCl5-1 cells were treated with either a dose curve of the indicated CDK4/6i or a dose curve of INX-315 + 1 µmol/L of the indicated CDK4/6i. Cell viability was determined using the CellTiter-Glo assay (Promega, G9241) following manufacturer's instructions. Plates were processed on either BioTek Synergy2 multi-mode (Agilent) or ClarioSTAR (BMG Labtech) plate readers. T47D and MCF7 cells were seeded into […] plates using BioTek 406 (Aglient) and treated with a ten-point dose concentration from 10 µmol/L to 0.3 nmol/L of INX-315 for 2× doubling times. Plates were fixed with 4% PFA and stained with Rhodamine-Phalloidin (Bio-Trend, 00027) and DAPI (5 mg/mL, Invitrogen, catalog no. D1306). Plates were imaged using CellInsight CX7 LZR and DAPI-positive cells were counted using Thermo Fisher Scientific HCS Studio Cell Analysis Software.

[3] = system: MKN1; test: CellTiter Glo viability assay; format: cell-based; conditions: 6 days
Experimental: as §1

[4] = system: palbociclib-resistant MCF7 cells; test: CellTiter Glo viability assay; format: cell-based; conditions: Homo sapiens, MCF7, Supp Fig S9B, CDK4/6 inhibitor monotherapy; read-out: IC50
Experimental: as §1

[5] = system: parental MCF7 and T47D cells; test: Cell cycle flow cytometry; format: cell-based; conditions: abemaciclib 500 nmol/L, 7 days
Experimental: One hour prior to endpoint, either 10 µmol/L BrdU or EdU was applied to the cells. Cells were stained using the Near-IR Fixable Viability Stain (Invitrogen, L34976) for 20 minutes at room temperature. Cells were fixed and permeabilized using FoxP3/Transcription Factor Staining Buffer Set (eBioscience, 00–5523–00; for BrdU-treated cells) or Click-iT fixative (for EdU-treated cells). DNA was denatured using 2N HCl + 0.5% (v/v) Triton X-100 for 30 minutes. […] Cells were then stained with BrdU antibody (clone 3D4, BioLegend, 364118, RRID:AB_2814318) for 1 hour. The EdU Click-iT reaction was performed using a Click-iT EdU Flow Cytometry Assay Kit (Invitrogen, C10418 or C10425). Prior to acquisition on the BD A3 Symphony or FACSCelesta, DNA was stained using FxCycle Violet ReadyFlow Reagent (BrdU) or FxCycle Far Red nucleic acid stain (Invitrogen, F10348) in combination with Rnase (Sigma R4642) (for EdU-treated cells). A minimum of 10,000 live cell events were recorded for each sample and data was analyzed using Flow Jo (Tree Star, RRID:SCR_008520).

[6] = system: MMTV-rtTA/tetO-HER2 tumors; test: Transgenic mammary tumor growth; format: in vivo, mice
Experimental: PDX models were performed by Crown Biosciences (OV5398, GA0103, and GA0114) or XenoSTART (ST4316B). Tumor fragments from stock mice were harvested and implanted subcutaneously into the flank of NOD/SCID mice (OV5398, RRID:IMSR_JAX:001303), BALB/c nude mice (GA0103 and GA0114, RRID:IMSR_RJ:BALB-C-NUDE), or athymic nude mice (Crl:NU(NCr)-Foxn1nu, RRID:IMSR_CRL:490) (ST4316B). For CDX models, female athymic nude mice (Crl:NU(NCr)-Foxn1nu, RRID:IMSR_CRL:490) were inoculated with 1 × 10^7 50% Cultrex OVCAR3 cells in the flank. Experiments performed using MMTV-rtTA/tetO-HER2 mice were performed at the Peter MacCallum Cancer Centre. Tumor formation was induced and sustained in female mice with doxycycline as previously described ([33]). Randomization and treatment in all models began when median tumor volume reached a maximum of 300 mm^3.
Mice were treated via oral gavage. INX-315 was prepared weekly in 100% PEG400; abemaciclib was prepared as previously described ([33]) and ribociclib (Selleckchem, S7440) was prepared weekly in 0.5% methyl cellulose. To generate abemaciclib-resistant MMTV-rtTA/tetO-HER2 tumors, mice were treated continuously with abemaciclib at a dose of 75 mg/kg until tumors resumed growth as described in text. […]

| Compound | sensitivity of CCNE1-amplified lines [1] | IC50 [2] [µM] | sensitivity of MKN1 [3] | IC50 [4] [µM] | cells in S-phase [5] [%] | tumors with tumor regression (>25% reduction in tumor volume) ([6]; abemaciclib monotherapy, 163 of 183 tumors) [%] | regressing tumors that had resumed growth (acquired resistance) ([6]; by day 35 of abemaciclib treatment, 142 of 163) [%] |
| --- | --- | --- | --- | --- | --- | --- | --- |
| CC(=O)c1c(C)c2cnc(Nc3ccc(N4CCNCC4)cn3)nc2n(C2CCCC2)c1=O [palbociclib, reference compound] | not sensitive | 0.026 | insensitive | > 10 |  |  |  |
| CCN1CCN(Cc2ccc(Nc3ncc(F)c(-c4cc(F)c5nc(C)n(C(C)C)c5c4)n3)nc2)CC1 [abemaciclib] |  |  |  | 5.71 | < 1 | 89 | 87 |
